One data set relates to zebrafish embryo. The note with it: in vivo, 24 h, 1 mM. The method, then: The toxicity study is carried out over 72 hours. The embryos are treated at 25 hpf with the doses used for the test of chemical compounds of each of the compounds, in a 96-well plate, in a final volume of 100 μl of the embryonic growth medium. The embryos are incubated 72 h at 28° C. The medium is changed every 24 hours. The survival rate of embryos and the appearance of developmental defects are analyzed daily.
At the same time, we analyzed the toxicity of althiazide after balancing with a solution containing althiazide at concentrations of 1 μM, 10 μM, 100 μM, 1000 μM for 24, 48 and 72 hours. The toxicity study was based on analysis of the percentage viability of the embryos after treatment. At concentrations of 1 μM, 10 μM and 100 μM, althiazide causes no toxicity even after 72 hours of treatment. A 50% toxicity is observed after treatment for 24 hours, the althiazide at the concentration of 1 mM.

In data set [1] the test system is MDA-MB-231 cells. In words: Migration test on MDA-MB-231 cells (scratch test). Format: cell-based, human. Particulars: 10, 50 and 100 μM, 18 h migration, FIG. 10. As to the method: Cell migration assays on the MDA-MB-231 cell line are performed in vitro in 96-well plates. The MDA-MB-231 cells were seeded at the density of 50000 cells per well, to form a monolayer. The cells are maintained in a DMEM culture medium supplemented with 0.2% fetal calf serum and incubated at 37° C., 5% CO2 and 1% O2 for 24 hours. The cell monolayer is injured with a pipette tip. The cells are then rinsed with PB S to remove the cells in suspension and the different treatments are added, as well as DMEM supplemented with 10% FCS. The cells are incubated for 18 hours at 37° C., 5% CO2 and 20% O2.
A first series of images of each well (center of the well) was carried out at the beginning of the experiment (t=0) and after 18 hours of migration (t=18) using a 4× objective Nikon microscope. The images were analyzed using ImageJ software (National Institutes of Health, USA).
The treatments were carried out in triplicate and the manipulation was carried out 3 times. […]
A first series of images of each well (center of the well) is performed at the beginning of the experiment (t=0) and after 18 h of migration (t=18) using a Nikon microscope −4× lens. The images were analyzed using Image J software (National Institute of Health, USA)

Data set [2] concerns MDA-MB-231 cells. In words: Cytotoxicity potentiation test: MTT cell viability of MDA-MB-231 cells, doxorubicin +/- althiazide. It is filed as cell-based, human. The method, then: The cell cultures are carried out on human breast cancer epithelial cell lines MDA-MB-231 (HTB-26™), resulting from metastases present in a pleural effusion of a patient with a mammary adenocarcinoma. This line is used as a triple negative cancer cell model (no expression of ER-type nuclear estrogen receptors, nuclear progesterone receptors or overexpression of the oncogene encoding HER2 protein (Human Epidermal Growth factor Receptor-2).
The cell viability is determined via the IC50 index, measured by the MTT technique (2-(4,5-dimethyl-2-thiazolyl)-3,5-diphenyl-2H-tetrazolium bromide) (Mosmann, 1983). This colorimetric test is based on the reduction of yellow tetrazolium salts into insoluble purple formazan crystals in aqueous solution. The spectrophotometric measurement of the absorbance at 570 nm is directly proportional to the number of viable cells
The cells were seeded in 96-well plates at a density of 25,000 cells per well. After 24 h of culture at 37° C., 5% CO2 and 1% O2, the medium was renewed and supplemented with increasing doses of doxorubicin+/−althiazide. Cells were incubated for 24 h at 37° C., 5% CO2 and 1% O2. The MDA-MB-231 cells were washed and then incubated for 1 hour at 37° C. with 100 μl of a 0.5 mg/ml MTT solution prepared in culture medium. The formazan crystals were dissolved in […] and the absorbance measured at 570 nm using the Tecan Sunrise spectrophotometer. The IC50 was determined using the Graphpad Prism 5.0 software. The treatments were carried out in triplicate and the manipulation was carried out 5 times.
The tests are carried out in cell culture in 96-well plates, on the cell line MDA-MB-231. The MDA-MB-231 cells are seeded in 96-well plates at a density of 10,000 cells and incubated 24 h at 37° C., 5% CO2 and 1% O2. The medium is then renewed and added with increasing concentrations of doxorubicin+/−100 μM althiazide. The cells are incubated for an additional 24 hours at 37° C., 5% CO2 and 1% O2. Treatments were made in triplicas and the experiment was repeated 5 times.
A cell viability test is then performed according to the method described in Materials and methods.
Results are normalized to the control condition (FIG. 12)

The record followed here is US20230137849A1, “USE OF A COMPOUND OF THE DIURETICS CLASS FOR TREATING CANCER” (AZELEAD, priority 2017, published 2023).

Take `C=CCSCC1Nc2cc(Cl)c(S(N)(=O)=O)cc2S(=O)(=O)N1` (racemic) [althiazide]: the “toxicity (percentage viability of the embryos)” value in the data set on zebrafish embryo was found to be 50%. The “decrease of the migration” value in the data set on MDA-MB-231 cells [1] is on record as approximately 50%. For the same compound, in the data set with MDA-MB-231 cells [2] (100 μM althiazide added to doxorubicin, 24 h, 1% O2), the “reduction of the IC50 of doxorubicin” value amounted to 45%. Moreover, in the data set on MDA-MB-231 cells [2] (100 μM althiazide, doxorubicin between 25 and 2.5 μM, FIG. 12), the “increase of the effects of doxorubicin” value was “about 15%”.
